Experimental data published in publication PMC11338949, “E41K mutation activates Bruton’s tyrosine kinase by stabilizing an inositol hexakisphosphate-dependent invisible dimer” (The Journal of Biological Chemistry, 2024).
Read-outs that look alike come from different tables or passages of the source.

What was measured:
[1] = target: T1, PH-TH^E41K (Bos taurus, UniProt Q3ZC95, E41K); assay: Size-exclusion chromatography of PH-TH domain with ligand
T1 construct: amino acid residue number 4–170; His-SUMO (N, cleaved yes); made in house; host or cells: E. coli BL21-DE3
Description: Size-exclusion chromatography of various constructs of the PH-TH domain was performed using the Superdex-200 10/300 Gl column. For the apo PH-TH domain, the column was equilibrated with running buffer (25 mM Tris-Cl, 100 mM NaCl, 1 mM DTT, pH 7.2), and 500 μl of 75 μM protein was loaded into the column, at a flow rate of 0.3 ml/min and at 8 °C. The elution profile was recorded, and the retention time of the protein was calculated. For the ligand-bound samples, the protein was mixed with ligand at a protein-to-ligand ratio of 1:4, and incubated at 4 °C for 15 min before loading into the size-exclusion column. Before loading the sample, the column was pre-equilibrated with a running buffer containing the ligand.

[2] = target: T2, PH-TH^E41K (isolated PH-TH domain of BTK, E41K mutant) (Bos taurus, UniProt Q3ZC95, E41K); assay: Isothermal titration calorimetry, ligand binding to isolated PH-TH domain E41K mutant; settings: ITC
T2 construct: amino acid residue number 4–170; His-SUMO (N, cleaved yes); made in house; host or cells: E. coli BL21-DE3
Description: (§1) The isothermal titration calorimetry experiments were performed using MicroCal ITC (GE Healthcare) and MicroCal PEAQ-ITC (Malvern). The PH-TH domain was buffer exchanged to 20 mM HEPES, 150 mM NaCl, pH 7.5. During the titration, 25 μM protein in the cell was titrated with a ligand at the protein-to-ligand ratio of 1: 5.5. All ITC titrations were performed at 20 °C. The initial injection of 0.5 μl was excluded from the data analysis. During the titration, 3 μl of ligand was injected in 13 steps, and each injection step was separated by 180 s. The protein solution was stirred at 300 rpm during the titration.

[3] = target: T3, BTK PH-TH E41K/R28H (Bos taurus, UniProt Q3ZC95, E41K/R28H); assay: Isothermal titration calorimetry, IP6 binding to PH-TH E41K/R28H; settings: ITC
T3 construct: amino acid residue number 4–170; His-SUMO (N, cleaved yes); made in house; host or cells: E. coli BL21-DE3
Description: as §1, with “analysis.” for “analysis. During the titration, 3 μl of ligand was injected in 13 steps, and each injection step was separated by 180 s. The protein solution was stirred at 300 rpm during the titration.”

[4] = target: T4, BTK^E41K (Mus musculus, UniProt P35991, E41K); assay: TIRF microscopy of membrane-bound BTK-mCherry in live CHO cells after IP6 stimulation; assay type: cell-based, Chinese Hamster
T4 construct: expressed in transfected cells; host or cells: CHO cells, transient transfection with pCDNA BTK-mCherry
Description: For Total internal reflection fluorescence (TIRF) microscopy, CHO cells were seeded in a glass bottom dish and transfected with 500 ng DNA. After 16 h of post-transfection, cells were serum starved by incubating in Opti-MEM serum-free media for 6 h. The images of lived CHO cells were recorded for 10 min before and after IP6 treatment. The TIRF images were acquired on a Nikon Eclipse Ti2 inverted microscope equipped with a Nikon 100 × 1.49 numerical aperture oil-immersion TIRF objective, a TIRF illuminator, a Perfect Focus system (PFS), and a motorized stage. The critical angle and the refractive index were set to 63° and 1.515, respectively ([53]). The samples were excited at 561 nm using an LU-N4 laser unit (Nikon, Tokyo, Japan) with solid-state lasers. Image acquisition was done using the Nikon NIS-Elements software. Live cell images were acquired at 1-min intervals for 10 min using an EMCCD camera, with an exposure time of 200 ms. The images were processed and analyzed using Fiji. Out-of-focus fluorescence in the acquired images is removed by deconvolution ([54]). […] The fluorescence intensity of each frame was quantified using “create spectrum jru V1” routine of Fiji. The half-life of fluorescence intensity at the plasma membrane was determined by fitting the fluorescence decay at indicated time points to a first-order kinetic equation using GraphPad Prism version 9.5.1.

[5] = target: T1, PH-TH^E41K; assay: Thermal denaturation by circular dichroism spectroscopy; settings: at the Tm of the apo state, equimolar ligand
Description: The melting temperature of the PH-TH domain was determined from the Circular Dichroism (CD) spectrum recorded at increasing temperatures (20° to 76 °C). For each sample, the CD spectra from 300 to 190 nm were recorded using a Jasco-J1500 spectropolarimeter with a temperature increment of 4 °C. CD spectra were recorded with 5 μM protein in 20 mM Sodium phosphate buffer pH 7.4 and in the absence or in the presence of an equimolar ligand. The measured ellipticity data was converted into molar ellipticity ([39]). The ΔGUnfolding was calculated considering the simplest two-step unfolding model, where a protein exists in a folded (F) and an unfolded (U) state as described previously ([40], [41]). The fraction unfolded [U] protein at a given temperature is:(1) [U]=(θT−θF)/(θU−θF) Where, θF and θU are the molar ellipticity of the fully folded and unfolded state at 218 nm, θT is the molar ellipticity at a given temperature. Considering that at a given temperature, the sum of the unfolded and folded [F] fraction of the protein is 1, the equilibrium constant, KUnfolding is:(2) KUnfolding=[U]/1−[U] […] The ΔΔGunfolding was calculated from the difference between the ΔG of the IP6 bound ΔGholo and ΔGapo state, measured at the Tm of the corresponding apo PH-TH construct.

[6] = target: BTK^E41K/R28H (Mus musculus, UniProt P35991, E41K/R28H); assay: Immunofluorescence of Y551 phosphorylation in transiently transfected CHO cells; settings: 500 μM IP6 for 1 h
Description: (§3) The IP6-mediated activation of BTK was determined by immunofluorescence and immunoblot in Chinese Hamster Ovary (CHO) cell line transiently transfected with BTK-mCherry cloned in pCDNA. […] Before activation, transfected cells were serum-starved for 6 h in opti-MEM, followed by incubation with 500 μM IP6 for 1 h in opti-MEM. For Immunoblot, cells were washed with ice-cold PBS and then incubated in RIPA buffer [10 mM Tris-Cl (pH 8.0), 140 mM NaCl, 1 mM EDTA, 0.1% SDS, and 1% Triton X-100] containing protease and phosphatase inhibitors (2 mM Benzamidine, 1 mM PMSF and 1 mM Sodium orthovanadate) for 10 min. […]
(§4) All images were acquired with the Leica SP8 confocal platform using an oil immersion HC PL APO CS2 63 × objective (NA 1.4) at 3.0X digital zoom. […] The level of BTK on the membrane or cytoplasm was determined from the intensity of mCherry measured at λex = 552 nm and λem = 576 to 651 nm, respectively. The Y551 phosphorylation was determined from the intensity of FITC tagged to the secondary antibody and measured at λex = 488 nm and λem = 505 to 531 nm. […] The intensity of mCherry or FITC at the membrane was determined by subtracting the respective intensities of ROI2 from ROI1. Whereas cytoplasmic intensity of mCherry or FITC was determined by subtracting the respective intensities of ROI3 from ROI2. […]

[7] = target: T5, wild-type PH-TH domain of BTK (Bos taurus, UniProt Q3ZC95); assay: Dynamic light scattering of PH-TH domain with IP6; settings: IP6 bound PH-TH domain
T5 construct: amino acid residue number 4–170; His-SUMO (N, cleaved yes); made in house; host or cells: E. coli BL21-DE3
Description: (§2) The Dynamic Light Scattering experiments were conducted using Malvern Zetasizer DLS Detectors using 1.5 ml plastic cuvettes. The samples were prepared in a buffer containing 25 mM Tris-Cl, 100 mM NaCl, 1 mM DTT, and pH 7.2. The experiment included three measurements of ten runs each. The theoretical calculations of the hydrodynamic radius of the proteins were performed using Hydropro ([51]).

[8] = target: T1, PH-TH^E41K; assay: Dynamic light scattering of PH-TH domain with IP6; settings: in the presence of IP6
Description: as §2

[9] = target: T6, BTK PH-TH E41K/R49S (Bos taurus, UniProt Q3ZC95, E41K/R49S); assay: Isothermal titration calorimetry, IP6 binding to PH-TH E41K/R49S; settings: ITC
T6 construct: amino acid residue number 4–170; His-SUMO (N, cleaved yes); made in house; host or cells: E. coli BL21-DE3
Description: as §1, with “analysis.” for “analysis. During the titration, 3 μl of ligand was injected in 13 steps, and each injection step was separated by 180 s. The protein solution was stirred at 300 rpm during the titration.”

[10] = target: BTK wild-type (Mus musculus, UniProt P35991); assay: Immunofluorescence of Y551 phosphorylation in transiently transfected CHO cells; settings: 500 μM IP6 for 1 h
Sequence of BTK wild-type (P35991 whole entry): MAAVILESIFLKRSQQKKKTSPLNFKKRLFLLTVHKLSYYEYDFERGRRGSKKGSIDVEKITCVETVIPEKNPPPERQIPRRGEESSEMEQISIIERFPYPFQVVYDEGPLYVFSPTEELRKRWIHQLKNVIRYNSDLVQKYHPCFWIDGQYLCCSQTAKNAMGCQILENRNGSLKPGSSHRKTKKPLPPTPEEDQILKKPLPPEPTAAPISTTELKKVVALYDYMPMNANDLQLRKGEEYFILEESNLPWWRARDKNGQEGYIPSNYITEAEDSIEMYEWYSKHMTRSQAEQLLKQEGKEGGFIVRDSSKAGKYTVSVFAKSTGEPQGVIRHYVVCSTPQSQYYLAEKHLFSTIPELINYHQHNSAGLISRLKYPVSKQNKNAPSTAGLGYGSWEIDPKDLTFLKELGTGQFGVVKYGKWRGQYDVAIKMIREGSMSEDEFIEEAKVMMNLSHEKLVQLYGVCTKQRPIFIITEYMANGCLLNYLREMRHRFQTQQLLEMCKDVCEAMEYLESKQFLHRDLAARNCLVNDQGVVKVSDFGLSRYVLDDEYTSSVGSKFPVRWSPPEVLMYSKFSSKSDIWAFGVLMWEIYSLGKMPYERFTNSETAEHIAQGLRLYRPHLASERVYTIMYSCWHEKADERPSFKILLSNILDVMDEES
Description: as §3, §4

T2 sequence (Q3ZC95 4-170 E41K): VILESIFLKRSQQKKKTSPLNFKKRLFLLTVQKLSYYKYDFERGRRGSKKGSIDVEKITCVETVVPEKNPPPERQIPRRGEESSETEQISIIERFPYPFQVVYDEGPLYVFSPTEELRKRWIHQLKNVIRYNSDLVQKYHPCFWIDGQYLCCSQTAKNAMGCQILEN
T1 sequence (Q3ZC95 4-170 E41K): as above
T3 sequence (Q3ZC95 4-170 R28H/E41K): as the sequence (Q3ZC95 4-170 E41K) above, with R25H counted along it
T6 sequence (Q3ZC95 4-170 E41K/R49S): as the sequence (Q3ZC95 4-170 E41K) above, with R46S counted along it
T4 sequence (P35991 whole entry E41K): as the sequence (P35991 whole entry) above, with E41K counted along it
T5 sequence (Q3ZC95 4-170): as the sequence (Q3ZC95 4-170 E41K) above, with K38E counted along it
Sequence of BTK^E41K/R28H (P35991 whole entry R28H/E41K, the tested form may be a part): as the sequence (P35991 whole entry) above, with R28H, E41K counted along it

Compound	dimerization of PH-TH^E41K ([1]; size-exclusion chromatography, in the presence of ligand)	binding to PH-TH^E41K ([2]; 25 μM protein titrated with 137 μM ligand)	∆H1 ([3]; Table S1) [kcal/mol]	Kd ([3]; Table S1, read-out: Kd1) [µM]	Kd ([3]; one-site fit, weak binding to peripheral lipid binding site, read-out: Kd) [µM]	critical concentration at which BTK^E41K comes out of the membrane [4] [mM]	ΔΔGunfolding (ΔGholo – ΔGapo) [5] [kcal/mol]	activation (Y551 phosphorylation) of BTK [6]	hydrodynamic radius [7] [nm]	hydrodynamic radius [8] [nm]	apparent size of migrating species in size-exclusion column ([1]; in the presence of IP6 (300 μM)) [kDa]	∆H1 ([2]; Table S1) [kcal/mol]	∆H2 ([2]; Table S1) [kcal/mol]	Kd ([2]; Table S1, 20 °C, read-out: Kd2) [µM]	Kd ([2]; two-site independent binding model, strong site, 20 °C, read-out: Kd1) [µM]	Kd ([2]; two-site independent binding model, weak site, 20 °C, read-out: Kd2) [µM]	∆H1 ([9]; Table S1) [kcal/mol]	Kd ([9]; one-site fit, binding to canonical lipid binding site, read-out: Kd (Kd1)) [µM]	activation (Y551 phosphorylation) of cytosolic fraction of BTK [10]
O=P(O)(O)O[C@@H]1[C@H](O)[C@H](O)[C@@H](OP(=O)(O)O)[C@H](OP(=O)(O)O)[C@H]1O [IP3]	does not dimerize	does not bind																	
O=P(O)(O)OC1C(OP(=O)(O)O)C(OP(=O)(O)O)C(OP(=O)(O)O)C(OP(=O)(O)O)C1OP(=O)(O)O (stereo not shown) [IP6, inositol hexakisphosphate]			-1.562 ± 1.008	2.42 ± 0.151	2.4 ± 0.15	0.5	1.49 ± 0.79	does not activate	2.18 ± 0.10	3.14 ± 0.48	~44	-4.749 ± 0.159	-5.098 ± 2.36	1.28 ± 0.366	0.152 ± 0.018	1.3 ± 0.4	-4.16 ± 0.55	0.622 ± 0.077	activates
